Source: US20210353639A1, “MAST1 AND USES FOR DIAGNOSING AND TREATING CANCER” (EMORY UNIVERSITY, priority 2018, published 2021)
Entries after “also recorded” stand apart in the source; their conditions may differ.

Legend:
MAST1 = biological target: T1, MAST1 (Homo sapiens, UniProt Q9Y2H9); test: MAST1 in vitro kinase assay (purified GST-MAST1, ADP-Glo); format: biochemical; conditions: 10 μM drugs incubated with purified GST-MAST1
T1 construct: GST; made in house; host or cells: 293T
Procedure: GST-MAST1 variants were enriched from 293T and kinase activity was assessed by ADP-Glo Kinase assay using myelin basic protein (MBP) as a substrate.
10 μM drugs were incubated with purified GST-MAST1 and applied to the in vitro kinase assay.
FIG. 7G show data on the effect of lestaurtinib on MAST1 activity at a range of ATP concentrations.

[1] = Cisplatin sensitivity / cell viability with MAST1 inhibitors in KB-3-1 cells; format: cell-based; conditions: human, read-out: attenuation of cell viability when treated alone
KB-3-1 cells = test: Combination cell viability, Combination Index by CompuSyn, KB-3-1; format: cell-based, human; conditions: lestaurtinib in combination with cisplatin
Excerpt: (§1) Combination Index (CI) value for cell viability was obtained by CompuSyn.

212LN cells = test: Combination cell viability, Combination Index by CompuSyn, 212LN; format: cell-based, human; conditions: lestaurtinib in combination with cisplatin
Excerpt: as §1

TKO-002 = test: Combination cell viability, SCLC patient-derived tumor TKO-002; format: cell-based, human; conditions: combination of lestaurtinib and cisplatin, platinum-refractory SCLC TKO-002
Excerpt: CI value for synergistic effect is shown.

[2] = Tolerability of lestaurtinib and cisplatin dosage (body weight, histopathology, hematopoietic properties); format: in vivo, mice; conditions: 20 mg/kg lestaurtinib and 5 mg/kg cisplatin
cRaf-MEK1 = biological target: T2, cRaf-MEK1 (Homo sapiens, UniProt P04049+Q02750); test: cRaf-MEK1 dissociation in cancer cells (MEK1 immunoprecipitation); format: cell-based
T2 construct: endogenous in cells; host or cells: KB-3-1 and other cancer cell lines
Procedure: KB-3-1 cells were treated with different compounds as indicated, followed by MEK1 immunoprecipitation and immunoblotting.

MEK1-cRaf complex = biological target: T3, MEK1-cRaf complex (Homo sapiens, UniProt P04049+Q02750); test: In vitro MEK1-cRaf dissociation, purified complex from KB-3-1 cells; format: biochemical
T3 construct: endogenous in cells; host or cells: KB-3-1
Excerpt: Samples were collected at different time points and subjected to immunoblotting. Density analysis of relative amount of cRaf bound to MEK1 from three biological replicates are shown.

Lung PDX (Pt-9 tumor) = test: Tumor growth in lung PDX mice (Pt-9 tumor), lestaurtinib or trametinib with cisplatin; format: in vivo; conditions: in combination with cisplatin (5 mg/kg i.p. twice a week); lestaurtinib 20 mg/kg i.p. 5 times a week, trametinib 1 mg/kg oral daily

T1 sequence (Q9Y2H9 whole entry): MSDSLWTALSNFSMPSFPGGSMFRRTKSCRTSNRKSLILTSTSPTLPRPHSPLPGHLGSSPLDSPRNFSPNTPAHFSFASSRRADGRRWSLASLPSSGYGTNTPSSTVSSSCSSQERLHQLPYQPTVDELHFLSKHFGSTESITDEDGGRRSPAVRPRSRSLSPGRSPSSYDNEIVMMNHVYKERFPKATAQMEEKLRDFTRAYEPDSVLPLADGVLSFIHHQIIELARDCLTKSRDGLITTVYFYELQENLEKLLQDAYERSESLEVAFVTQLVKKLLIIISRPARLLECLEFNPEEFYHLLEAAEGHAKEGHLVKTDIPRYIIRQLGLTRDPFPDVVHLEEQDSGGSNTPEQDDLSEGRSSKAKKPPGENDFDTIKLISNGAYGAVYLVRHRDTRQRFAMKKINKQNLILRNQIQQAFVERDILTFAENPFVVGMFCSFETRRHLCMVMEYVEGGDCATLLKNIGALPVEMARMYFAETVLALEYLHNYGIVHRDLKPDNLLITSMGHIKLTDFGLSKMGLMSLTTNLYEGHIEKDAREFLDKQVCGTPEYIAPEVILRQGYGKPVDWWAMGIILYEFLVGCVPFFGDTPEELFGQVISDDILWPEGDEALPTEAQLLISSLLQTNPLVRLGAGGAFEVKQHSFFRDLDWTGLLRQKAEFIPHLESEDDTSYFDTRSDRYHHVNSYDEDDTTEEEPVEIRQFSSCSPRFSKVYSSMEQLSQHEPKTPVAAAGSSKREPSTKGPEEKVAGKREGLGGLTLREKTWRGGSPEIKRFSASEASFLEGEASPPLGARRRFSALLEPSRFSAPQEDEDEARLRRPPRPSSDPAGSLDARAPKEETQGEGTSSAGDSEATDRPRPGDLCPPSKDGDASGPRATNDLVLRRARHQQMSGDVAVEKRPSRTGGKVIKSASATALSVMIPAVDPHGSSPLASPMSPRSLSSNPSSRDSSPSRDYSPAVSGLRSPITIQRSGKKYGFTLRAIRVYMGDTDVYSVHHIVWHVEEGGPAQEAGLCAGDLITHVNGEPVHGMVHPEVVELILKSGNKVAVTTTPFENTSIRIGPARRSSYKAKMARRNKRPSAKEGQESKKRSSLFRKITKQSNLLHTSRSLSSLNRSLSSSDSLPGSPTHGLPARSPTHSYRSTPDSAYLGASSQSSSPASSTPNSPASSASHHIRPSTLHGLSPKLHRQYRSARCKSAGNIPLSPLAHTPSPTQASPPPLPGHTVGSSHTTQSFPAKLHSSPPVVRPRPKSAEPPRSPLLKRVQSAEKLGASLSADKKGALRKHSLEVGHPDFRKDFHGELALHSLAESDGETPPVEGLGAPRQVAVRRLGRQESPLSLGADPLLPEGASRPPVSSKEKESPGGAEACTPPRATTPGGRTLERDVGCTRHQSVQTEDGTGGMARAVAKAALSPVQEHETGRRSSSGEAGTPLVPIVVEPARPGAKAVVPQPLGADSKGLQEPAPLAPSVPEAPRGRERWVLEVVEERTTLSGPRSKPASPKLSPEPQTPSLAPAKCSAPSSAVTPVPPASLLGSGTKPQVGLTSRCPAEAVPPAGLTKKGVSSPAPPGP
T3 sequence (Q02750 whole entry): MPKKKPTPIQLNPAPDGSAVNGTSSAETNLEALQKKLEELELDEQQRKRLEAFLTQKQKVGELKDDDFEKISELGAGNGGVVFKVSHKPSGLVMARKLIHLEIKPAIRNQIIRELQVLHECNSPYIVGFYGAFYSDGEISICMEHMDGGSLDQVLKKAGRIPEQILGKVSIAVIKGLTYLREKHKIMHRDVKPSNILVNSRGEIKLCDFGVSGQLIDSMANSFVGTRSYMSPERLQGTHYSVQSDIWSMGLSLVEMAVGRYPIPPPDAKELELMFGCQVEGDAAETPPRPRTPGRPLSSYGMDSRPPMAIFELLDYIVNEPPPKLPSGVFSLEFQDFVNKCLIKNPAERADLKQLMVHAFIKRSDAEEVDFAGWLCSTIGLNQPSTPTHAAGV
T3 sequence (P04049 whole entry): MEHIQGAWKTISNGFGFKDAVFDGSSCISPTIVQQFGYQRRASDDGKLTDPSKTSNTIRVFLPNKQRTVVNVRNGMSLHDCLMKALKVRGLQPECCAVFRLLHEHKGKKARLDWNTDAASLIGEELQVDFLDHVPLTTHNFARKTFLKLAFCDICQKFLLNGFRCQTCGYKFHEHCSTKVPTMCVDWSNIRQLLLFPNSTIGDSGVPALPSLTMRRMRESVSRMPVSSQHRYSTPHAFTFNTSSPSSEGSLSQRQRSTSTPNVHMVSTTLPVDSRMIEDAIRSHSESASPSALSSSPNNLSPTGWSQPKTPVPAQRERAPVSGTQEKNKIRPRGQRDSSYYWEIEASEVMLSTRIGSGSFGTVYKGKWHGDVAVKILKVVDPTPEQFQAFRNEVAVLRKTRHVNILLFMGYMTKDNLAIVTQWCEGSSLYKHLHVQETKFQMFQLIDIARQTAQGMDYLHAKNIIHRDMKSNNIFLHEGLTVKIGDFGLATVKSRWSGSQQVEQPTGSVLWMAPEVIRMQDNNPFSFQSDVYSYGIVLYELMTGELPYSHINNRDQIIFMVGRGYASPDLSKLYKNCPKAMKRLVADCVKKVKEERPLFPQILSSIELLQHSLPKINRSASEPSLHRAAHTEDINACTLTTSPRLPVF
T2 sequence (Q02750 whole entry): as the sequence (Q02750 whole entry) above
T2 sequence (P04049 whole entry): as the sequence (P04049 whole entry) above

Which “MAST1 activity in in vitro MAST1 kinase assay” value (from here on “MAST1 activity”) (MAST1) does the source give for `CN[C@@H]1C[C@H]2O[C@@](C)([C@@H]1OC)n1c3ccccc3c3c4c(c5c6ccccc6n2c5c31)C(=O)NC4` [staurosporine, 6-methoxy-5-methyl-7-methylamino-6,7,8,9,15,16-hexahydro-5H,14H-5,9-epoxy-4b,9a,15-triazadibenzo[b,h]cyclonona[1,2,3,4-jkl]cyclopenta[e]-as-indacen-14-one] here?
Its value is “inhibited MAST1 activity in vitro”.

What does the source list for `C[C@]12O[C@H](C[C@]1(O)CO)n1c3ccccc3c3c4c(c5c6ccccc6n2c5c31)CNC4=O` [lestaurtinib, 7-hydroxy-7-(hydroxymethyl)-8-methyl-5,6,7,8,13,14-hexahydro-15H-16-oxa-4b,8a,14-triaza-5,8-methanodibenzo[b,h]cycloocta[jkl]cyclopenta[e]-as-indacen-15-one]?
cytotoxicity at 48 h, 100 nM [1]: < 20%; combination index (CI) for cell viability (KB-3-1 cells): 0.256; combination index (CI) for cell viability (212LN cells): 0.257; CI value for cell viability (TKO-002): 0.57; changes in body weight, histopathology, or hematopoietic properties [2]: did not induce significant changes

Which results are given for `N.N.[Cl][Pt][Cl]` [cisplatin]?
dissociation of cRaf from MEK1 in diverse types of cancer cells (cRaf-MEK1; 5 μg/ml cisplatin for 24 hours): dissociates cRaf; time to dissociation of cRaf from MEK1 (MEK1-cRaf complex; 5 μg/ml cisplatin, time course): within one hour; dissociation of cRaf from MEK1 in vitro (MEK1-cRaf complex; purified MEK1-cRaf complex, cisplatin 0-5 μg/ml for 2 hours): dissociates cRaf from MEK1 in a dose-dependent manner

With `Cc1[nH]c(C=C2C(=O)Nc3ccc(F)cc32)c(C)c1C(=O)NCC(O)CN1CCOCC1` (stereo not drawn) [SU14813, 5-((5-fluoro-2-oxo-1,2-dihydro-3H-indol-3-ylidene)methyl)-N-(2-hydroxy-3-morpholin-4-ylpropyl)-2,4-dimethyl-1H-pyrrole-3-carboxamide] as the molecule, how does the “MAST1 activity” value (MAST1) read?
Its value is “inhibited MAST1 activity in vitro”.

With `COc1cc(Nc2c(C#N)cnc3cc(OCCCN4CCN(C)CC4)c(OC)cc23)c(Cl)cc1Cl` [bosutinib, 4-[(2,4-Dichloro-5-methoxyphenyl)amino]-6-methoxy-7-[3-(4-methyl-1-piperazinyl)propoxy]-3-quinolinecarbonitrile] as the molecule, how does the “MAST1 activity” value (MAST1) read?
The value was “inhibited MAST1 activity in vitro”.

For `CC(=O)O[C@H]1C(=O)[C@@]2(C)[C@H]([C@H](OC(=O)c3ccccc3)[C@]3(O)C[C@H](OC(=O)[C@H](O)[C@@H](NC(=O)c4ccccc4)c4ccccc4)C(C)=C1C3(C)C)[C@]1(OC(C)=O)CO[C@@H]1C[C@@H]2O` [paclitaxel], which “dissociation of cRaf-MEK1 induced by DNA damaging agents and cytotoxic drugs” value (cRaf-MEK1; KB-3-1 cells) is on record?
Its value is “not”.

Which “MAST1 activity” value (MAST1) does the source give for `CN1CCN(c2ccc3[nH]c(-c4c(N)c5c(F)cccc5[nH]c4=O)nc3c2)CC1` [dovitinib, 4-amino-5-fluoro-3-(5-(4-methylpiperazin-1-yl)-1H-benzimidazol-2-yl)quinolin-2(1H)-one] here?
The value was “inhibited MAST1 activity in vitro”.

For `N#CC(=C(/N)Sc1ccccc1N)/C(C#N)=C(\N)Sc1ccccc1N` [U0126], which “sensitization of cancer cells to cisplatin by MEK1 inhibitor” value (cancer cells) is on record?
Its value is “sensitized cancer cells to cisplatin”.

Which “PDX tumor growth and proliferation” value (Lung PDX (Pt-9 tumor)) does the source give for `CC(=O)Nc1cccc(-n2c(=O)n(C3CC3)c(=O)c3c(Nc4ccc(I)cc4F)n(C)c(=O)c(C)c32)c1` [trametinib, N-[3-[3-cyclopropyl-5-[(2-fluoro-4-iodophenyl)amino]-3,4,6,7-tetrahydro-6,8-dimethyl-2,4,7-trioxopyrido[4,3-d]pyrimidin-1(2H)-yl]phenyl]acetamide] here?
The value was “attenuated PDX tumor growth and proliferation; also recorded: sensitizes cancer cells to cisplatin”.
